Converted amounts (≈) assume the structure as drawn.
Columns and labels:
PC-3 = assay: Growth inhibition of human PC3 cells by MTT assay; format: functional, cell-based
Aspergillus clavatus = assay: Antifungal activity against Aspergillus clavatus after overnight incubation by agar well diffusion method; format: functional
Bacillus subtilis = assay: Antimicrobial activity against Bacillus subtilis 10B incubated for 18 to 24 hrs by disk diffusion method; format: functional
Escherichia coli [1] = assay: Antimicrobial activity against Escherichia coli ATCC 25922 incubated for 18 to 24 hrs by disk diffusion method; format: functional
Staphylococcus aureus [2] = assay: Antimicrobial activity against Staphylococcus aureus ATCC 25923 incubated for 18 to 24 hrs by disk diffusion method; format: functional
Pseudomonas aeruginosa [3] = assay: Antimicrobial activity against Pseudomonas aeruginosa ATCC 27853 incubated for 18 to 24 hrs by disk diffusion method; format: functional
[4] = tested on: Staphylococcus epidermidis; assay: Antimicrobial activity against methicillin-resistant Staphylococcus epidermidis clinical isolate incubated for 16 hrs by CLSI based agar dilution method; format: functional
Staphylococcus aureus [5] = assay: Antimicrobial activity against methicillin-susceptible Staphylococcus aureus clinical isolate incubated for 16 hrs by CLSI based agar dilution method; format: functional
Klebsiella pneumoniae = assay: Antimicrobial activity against Klebsiella pneumoniae ATCC 29522 incubated for 16 hrs by CLSI-based agar dilution method; format: functional; settings: ATCC 29522, 16 h
[6] = tested on: Staphylococcus epidermidis; assay: Antimicrobial activity against methicillin-susceptible Staphylococcus epidermidis clinical isolate incubated for 16 hrs by CLSI based agar dilution method; format: functional
Staphylococcus aureus [7] = assay: Antimicrobial activity against methicillin-resistant Staphylococcus aureus clinical isolate incubated for 16 hrs by CLSI based agar dilution method; format: functional
Escherichia coli [8] = assay: Antimicrobial activity against Escherichia coli ATCC 700603 incubated for 16 hrs by CLSI-based agar dilution method; format: functional; settings: ATCC 700603, 16 h
Staphylococcus aureus [9] = assay: Antimicrobial activity against Staphylococcus aureus ATCC 25923 incubated for 18 to 24 hrs; format: functional
Escherichia coli [10] = assay: Antimicrobial activity against Escherichia coli ATCC 25922 incubated for 18 to 24 hrs; format: functional
[11] = tested on: Staphylococcus epidermidis; assay: Antimicrobial activity against methicillin-resistant Staphylococcus epidermidis 12-1 incubated for 18 to 24 hrs; format: functional
Staphylococcus aureus [12] = assay: Antimicrobial activity against methicillin-resistant Staphylococcus aureus ATCC 12-1 incubated for 18 to 24 hrs; format: functional
Pseudomonas aeruginosa [13] = assay: Antimicrobial activity against Pseudomonas aeruginosa ATCC 12-12 incubated for 18 to 24 hrs; format: functional
Pseudomonas aeruginosa [14] = assay: Antimicrobial activity against Pseudomonas aeruginosa ATCC 9027 by agar well diffusion method; format: functional
Staphylococcus aureus [15] = assay: Antimicrobial activity against Staphylococcus aureus ATCC 6538 by agar dilution method; format: functional
Escherichia coli [16] = assay: Antimicrobial activity against Escherichia coli ATCC 8739 by agar dilution method; format: functional

COc1c(N2CCN(C)CC2)c(F)cc2c(=O)c(C(=O)N/N=C\c3cc(Br)ccc3O)cn(C3CC3)c12
IC50 (PC-3): 12 mg/L (≈ 21 µM) | inhibition zone (IZ) (Aspergillus clavatus): 12 mm

CCn1cc(C(=O)O)c(=O)c2cc(F)c(Nc3ncccn3)cc21
MIC (Bacillus subtilis): > 500 mg/L | MIC (Escherichia coli [1]): 510 mg/L (≈ 1550 µM) | MIC (Staphylococcus aureus [2]): 515 mg/L (≈ 1570 µM) | MIC (Pseudomonas aeruginosa [3]): > 500 mg/L

O=C(O)c1cn(C2CC2)c2cc(N3CCN(CC(O)Cn4cc([N+](=O)[O-])nc4Cl)CC3)c(F)cc2c1=O (configuration not stated)
MIC [4]: 2 mg/L (≈ 3.74 µM) | MIC (Staphylococcus aureus [5]): 4 mg/L (≈ 7.48 µM) | MIC (Klebsiella pneumoniae): > 32 mg/L | MIC [6]: 2 mg/L (≈ 3.74 µM) | MIC (Staphylococcus aureus [7]): 32 mg/L (≈ 59.8 µM) | MIC (Escherichia coli [8]): 16 mg/L (≈ 29.9 µM)

O=C(O)c1cn(CCF)c2c(F)c(N3CCN(CC(O)Cn4cc([N+](=O)[O-])nc4Cl)CC3)c(F)cc2c1=O (configuration not stated)
MIC [4]: 2 mg/L (≈ 3.58 µM) | MIC (Staphylococcus aureus [5]): 16 mg/L (≈ 28.6 µM) | MIC (Klebsiella pneumoniae): > 32 mg/L | MIC [6]: 16 mg/L (≈ 28.6 µM) | MIC (Staphylococcus aureus [7]): 32 mg/L (≈ 57.3 µM) | MIC (Escherichia coli [8]): > 32 mg/L

COc1c(N2CCCC(N(C)CC(O)Cn3cc([N+](=O)[O-])nc3Cl)C2)c(F)cc2c(=O)c(C(=O)O)cn(C3CC3)c12 (configuration not stated)
MIC [4]: 0.25 mg/L (≈ 0.422 µM) | MIC (Staphylococcus aureus [5]): 0.5 mg/L (≈ 0.843 µM) | MIC (Klebsiella pneumoniae): > 32 mg/L | MIC [6]: 0.5 mg/L (≈ 0.843 µM) | MIC (Staphylococcus aureus [7]): 8 mg/L (≈ 13.5 µM) | MIC (Escherichia coli [8]): 4 mg/L (≈ 6.75 µM)

CO/N=C1\CCN(c2c(F)cc3c(=O)c(C(=O)O)cn(C4CC4)c3c2OC)CC1NC(=O)CN (configuration not stated)
MIC (Staphylococcus aureus [9]): 0.25 mg/L (≈ 0.526 µM) | MIC (Escherichia coli [10]): 4 mg/L (≈ 8.41 µM) | MIC [11]: 32 mg/L (≈ 67.3 µM) | MIC (Staphylococcus aureus [12]): 32 mg/L (≈ 67.3 µM) | MIC (Pseudomonas aeruginosa [13]): 32 mg/L (≈ 67.3 µM)

CCn1cc(C(=O)O)c(=O)c2cc(F)c(N3CCN(C(C)=O)CC3)cc21 [4-N-ACETYL-1-PIPERAZINYL-NORFLOXACIN]
MIC (Bacillus subtilis): 0.805 mg/L (≈ 2.23 µM) | MIC (Escherichia coli [1]): 0.012 mg/L (≈ 0.0332 µM) | MIC (Staphylococcus aureus [2]): 10.7 mg/L (≈ 29.7 µM) | MIC (Pseudomonas aeruginosa [3]): > 500 mg/L

CCn1cc(C(=O)O)c(=O)c2cc(F)c(N3CCCC3)c(Cl)c21
MIC (Pseudomonas aeruginosa [14]): 8 mg/L (≈ 23.6 µM) | MIC (Staphylococcus aureus [15]): < 0.125 mg/L | MIC (Escherichia coli [16]): 16 mg/L (≈ 47.2 µM)

CO/N=C1\CCN(c2c(F)cc3c(=O)c(C(=O)O)cn(C4CC4)c3c2OC)CC1NC(=O)C(C)NC(=O)C(C)N (configuration not stated)
MIC (Staphylococcus aureus [9]): 4 mg/L (≈ 7.14 µM) | MIC (Escherichia coli [10]): 32 mg/L (≈ 57.1 µM) | MIC [11]: 64 mg/L (≈ 114 µM) | MIC (Staphylococcus aureus [12]): > 128 mg/L | MIC (Pseudomonas aeruginosa [13]): 128 mg/L (≈ 228 µM)

COc1c(N2CCN(C(O)Cn3cc([N+](=O)[O-])nc3Cl)CC2)c(F)cc2c(=O)c(C(=O)O)cn(C3CC3)c12 (configuration not stated)
MIC [4]: 0.03 mg/L (≈ 0.0545 µM) | MIC (Staphylococcus aureus [5]): 0.5 mg/L (≈ 0.908 µM) | MIC (Klebsiella pneumoniae): > 32 mg/L | MIC [6]: 0.25 mg/L (≈ 0.454 µM) | MIC (Staphylococcus aureus [7]): 8 mg/L (≈ 14.5 µM) | MIC (Escherichia coli [8]): 4 mg/L (≈ 7.26 µM)

COc1c(N2CCCC(N(C)C[C@@H](O)Cn3cc([N+](=O)[O-])nc3C)C2)c(F)cc2c(=O)c(C(=O)O)cn(C3CC3)c12 (some centres not stated)
MIC [4]: 0.25 mg/L (≈ 0.437 µM) | MIC (Staphylococcus aureus [5]): 1 mg/L (≈ 1.75 µM) | MIC (Klebsiella pneumoniae): 16 mg/L (≈ 27.9 µM) | MIC [6]: 1 mg/L (≈ 1.75 µM) | MIC (Staphylococcus aureus [7]): 32 mg/L (≈ 55.9 µM) | MIC (Escherichia coli [8]): 8 mg/L (≈ 14 µM)

CO/N=C1\CCN(c2c(F)cc3c(=O)c(C(=O)O)cn(C4CC4)c3c2OC)CC1NC(=O)[C@H](N)Cc1ccccc1 (some centres not stated)
MIC (Staphylococcus aureus [9]): 0.125 mg/L (≈ 0.221 µM) | MIC (Escherichia coli [10]): 16 mg/L (≈ 28.3 µM) | MIC [11]: 64 mg/L (≈ 113 µM) | MIC (Staphylococcus aureus [12]): 64 mg/L (≈ 113 µM) | MIC (Pseudomonas aeruginosa [13]): 128 mg/L (≈ 226 µM)

CO/N=C1\CCN(c2c(F)cc3c(=O)c(C(=O)O)cn(C4CC4)c3c2OC)CC1NC(=O)[C@H](N)CC(C)C (some centres not stated)
MIC (Staphylococcus aureus [9]): 0.25 mg/L (≈ 0.47 µM) | MIC (Escherichia coli [10]): 4 mg/L (≈ 7.52 µM) | MIC [11]: 64 mg/L (≈ 120 µM) | MIC (Staphylococcus aureus [12]): 64 mg/L (≈ 120 µM) | MIC (Pseudomonas aeruginosa [13]): 128 mg/L (≈ 241 µM)

CCn1cc(C(=O)O)c(=O)c2cc(F)c(N3CCN(CC(O)Cn4cc([N+](=O)[O-])nc4Cl)C(C)C3)c(F)c21 (configuration not stated)
MIC [4]: 0.125 mg/L (≈ 0.225 µM) | MIC (Staphylococcus aureus [5]): 4 mg/L (≈ 7.21 µM) | MIC (Klebsiella pneumoniae): 32 mg/L (≈ 57.7 µM) | MIC [6]: 2 mg/L (≈ 3.6 µM) | MIC (Staphylococcus aureus [7]): 32 mg/L (≈ 57.7 µM) | MIC (Escherichia coli [8]): 4 mg/L (≈ 7.21 µM)

COc1c(N2CCN(C)CC2)c(F)cc2c(=O)c(C(=O)N/N=C\c3ccccc3)cn(C3CC3)c12
IC50 (PC-3): 16.3 mg/L (≈ 34.1 µM) | inhibition zone (IZ) (Aspergillus clavatus): 11 mm

CCn1cc(C(=O)O)c(=O)c2cc(F)c(NNc3ncccn3)c(F)c21
MIC (Bacillus subtilis): > 500 mg/L | MIC (Escherichia coli [1]): 120 mg/L (≈ 332 µM) | MIC (Staphylococcus aureus [2]): 150 mg/L (≈ 415 µM) | MIC (Pseudomonas aeruginosa [3]): > 500 mg/L

CCn1cc(C(=O)O)c(=O)c2cc(F)c(N3CCOCC3)cc21
MIC (Pseudomonas aeruginosa [14]): 128 mg/L (≈ 400 µM) | MIC (Staphylococcus aureus [15]): 0.32 mg/L (≈ 0.999 µM) | MIC (Escherichia coli [16]): 16 mg/L (≈ 50 µM)

COc1c(N2CCN(C)CC2)c(F)cc2c(=O)c(C(=O)N/N=C\c3ccc(F)cc3)cn(C3CC3)c12
inhibition zone (IZ) (Aspergillus clavatus): 11 mm

CCn1cc(C(=O)O)c(=O)c2cc(F)c(N3CCN(C)CC3)c(Cl)c21
MIC (Pseudomonas aeruginosa [14]): 1 mg/L (≈ 2.72 µM) | MIC (Staphylococcus aureus [15]): 4 mg/L (≈ 10.9 µM) | MIC (Escherichia coli [16]): 2 mg/L (≈ 5.44 µM)

COc1c(N2CCN(CC(O)Cn3cc([N+](=O)[O-])nc3C)C(C)C2)c(F)cc2c(=O)c(C(=O)O)cn(C3CC3)c12 (configuration not stated)
MIC [4]: 1 mg/L (≈ 1.79 µM) | MIC (Staphylococcus aureus [5]): 1 mg/L (≈ 1.79 µM) | MIC (Klebsiella pneumoniae): > 32 mg/L | MIC [6]: 1 mg/L (≈ 1.79 µM) | MIC (Staphylococcus aureus [7]): 32 mg/L (≈ 57.3 µM) | MIC (Escherichia coli [8]): 8 mg/L (≈ 14.3 µM)

CCn1cc(C(=O)O)c(=O)c2cc(F)c(Nc3n[nH]c(N)n3)cc21
MIC (Bacillus subtilis): > 500 mg/L | MIC (Escherichia coli [1]): 150 mg/L (≈ 451 µM) | MIC (Staphylococcus aureus [2]): > 500 mg/L | MIC (Pseudomonas aeruginosa [3]): > 500 mg/L
